Key:
LPS-induced sepsis model = assay: LPS-induced sepsis myopathy (skeletal muscle atrophy) model; assay type: in vivo, mice; conditions: for atrophy of the tibialis anterior muscle: 14 days of LPS treatment; for survival rate: 14 days after LPS (1 mg/kg)
Text: Animal models of sepsis can be established by injecting exogenous toxins into animals. In this study, a sepsis model was established via intraperitoneal injection of lipopolysaccharide to observe the effects of compounds on the occurrence and development of acquired weakness. This is a widely used method for modeling sepsis.
A skeletal muscle atrophy model induced by lipopolysaccharide can simulate clinical muscle atrophy caused by sepsis.
Mice were given a single intraperitoneal injection of LPS (1 mg/kg), followed by 14 consecutive days of intraperitoneal injection of either vehicle (1% DMSO dissolved in physiological saline) or Compound 30. Body weight was measured daily. After 14 days of LPS treatment, the mice were anesthetized, and the gastrocnemius and tibialis anterior muscles were harvested.

S1PR4 = target: T1, S1PR4 (Homo sapiens, UniProt O95977); assay: S1PR4 internalization function test in S1PR4-293T cells; assay type: cell-based; conditions: 1 µM, 37 °C, 1.5 hours; detected immediately, or at 5 hours or 20 hours after treatment
T1 construct: expressed in transfected cells; host or cells: 293T
T1 sequence (O95977 1-384): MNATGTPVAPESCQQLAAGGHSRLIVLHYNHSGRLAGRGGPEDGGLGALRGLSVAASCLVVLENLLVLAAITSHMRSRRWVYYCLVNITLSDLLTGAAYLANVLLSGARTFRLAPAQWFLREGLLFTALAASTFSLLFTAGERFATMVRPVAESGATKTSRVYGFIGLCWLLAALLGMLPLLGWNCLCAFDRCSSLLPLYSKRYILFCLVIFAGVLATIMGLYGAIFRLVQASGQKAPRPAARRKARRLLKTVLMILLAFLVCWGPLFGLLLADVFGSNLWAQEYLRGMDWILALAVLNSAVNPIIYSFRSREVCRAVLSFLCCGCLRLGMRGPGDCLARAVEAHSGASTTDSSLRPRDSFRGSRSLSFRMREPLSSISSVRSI
Method: Therefore, the recovery degree of S1PR4 after internalization caused by Compound 30 was evaluated, and the recovery effect following receptor internalization caused by Compound 30 was assessed in cells with high S1PR4 expression.

[1] = tested on: S1PR4-R82C/NDUFA10-R217W double-mutant mice; assay: In vivo efficacy in S1PR4-R82C/NDUFA10-R217W double-mutant muscular dystrophy mice; conditions: for grip strength (ratio of grip strength to body weight): after 21 days of treatment; for body weight gain trend: compared with the model group; for collagen deposition (collagen area ratio): after administration
Method: Experimental Animals: A total of 34 S1PR4-R82C/NDUFA10-R217W mice were divided into 6 groups as shown below.
Intragastric administration was initiated on Day 0, and body weight was measured daily during the experiment to adjust the drug dosage. Grip strength was measured at the beginning and end of the experiment to observe motor changes in mice. Changes in the limb grip strength, serum creatine kinase content, and muscle fibrosis/inflammation in mice were detected as indicators for evaluating drug efficacy.
The mouse was placed horizontally on the grip test board. The mouse's tail was held and pulled gently in the opposite direction without using excessive force. The tail was gradually pulled until the mouse released the grip force sensor. The maximum value recorded by the grip force sensor is the grip strength. The test was repeated for 3 times and the average value was taken.
After the completion of administration, blood was collected via the orbital sinus, allowed to stand for 30 minutes, centrifuged at 3000 rpm at 4°C for 15 minutes, and serum was extracted, stored frozen at -20°C, and detected in accordance with the kit instructions.
After the experiment, the tibialis anterior, extensor digitorum longus, and diaphragm of the mice were harvested, fixed, sectioned, and subjected to HE staining and Sirius Red staining to observe the degree of muscle fibrosis. The slice was subjected to immunofluorescence staining with F4/80 to observe the level of muscle inflammation.

S1PR5 = target: T2, S1PR5 (Homo sapiens, UniProt Q9H228); assay: FLIPR assay, S1PR5-CHO cell line; assay type: cell-based
T2 construct: expressed in transfected cells; host or cells: CHO
T2 sequence (Q9H228 whole entry, species assumed): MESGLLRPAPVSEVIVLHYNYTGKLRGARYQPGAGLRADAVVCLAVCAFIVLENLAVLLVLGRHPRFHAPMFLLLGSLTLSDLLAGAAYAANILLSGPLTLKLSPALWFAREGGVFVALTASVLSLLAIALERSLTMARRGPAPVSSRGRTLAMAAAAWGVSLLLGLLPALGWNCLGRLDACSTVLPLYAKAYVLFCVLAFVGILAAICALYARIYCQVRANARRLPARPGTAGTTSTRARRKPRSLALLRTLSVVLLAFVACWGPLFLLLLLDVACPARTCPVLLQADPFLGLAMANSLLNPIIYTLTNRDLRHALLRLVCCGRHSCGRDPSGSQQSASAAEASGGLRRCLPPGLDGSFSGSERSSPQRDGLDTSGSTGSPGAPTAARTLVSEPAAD
Method: (§1) ^a β-arrestin recruitment activity based on Tango-S1PR1-CHO-K1 and Tango-S1PR4-CHO-K1 cells, expressed as mean EC50 values ± SD. ^b FLIPR assays were performed using S1PR2-CHO and S1PR5-CHO cell lines, expressed as mean EC50 values ± SD. ^c β-arrestin recruitment activity based on PathHunter CHO-K1-S1PR3 cells, expressed as mean EC50 values ± SD. Data are the mean of at least two independent determinations, reported as mean ± SD (standard deviation).

hS1P4 = target: T3, hS1P4 (Homo sapiens, UniProt O95977); assay: Tango β-arrestin recruitment assay, Tango-hS1P4-CHO; assay type: cell-based; conditions: selectivity table; Tango-S1PR4-CHO-K1 cells
T3 construct: expressed in transfected cells; host or cells: CHO-K1
T3 sequence (O95977 1-384): T1 sequence (O95977 1-384)
Text: The Tango assay detects ligand-dependent GPCR activity through the interaction between β-arrestin and GPCRs. […] The NTEV fragment and the tetracycline transactivator (tTA), an artificial transcription factor, are fused at the C-terminus of the GPCR, while the CTEV fragment is fused to human β-arrestin 2. To enhance the stability of the interaction between GPCR and β-arrestin, a short sequence from the C-terminus of the human arginine vasopressin receptor 2 (V2 tail) is inserted between the GPCR and NTEV. The V2 tail contains multiple GRK phosphorylation sites, which strengthen β-arrestin binding upon phosphorylation. The CTEV fragment carries the stabile point mutation S219P and is truncated at residue 221 to remove the autoinhibitory C-terminal tail. Meanwhile, β-arrestin 2 is truncated to lack the entire C-terminal tail (residues 383-410 deleted). This truncation confers robust stimulus-dependent receptor desensitization, thereby improving detection sensitivity compared with wild-type β-arrestin 2. The UAS reporter construct consists of upstream activating sequence (UAS) elements, a minimal CMV promoter, and a tTA-dependent luciferase reporter gene. Therefore, constructing Tango cells requires the co-transfection of the above three plasmids into host cells. Upon GPCR activation and β-arrestin recruitment, the TEV enzyme at the β-arrestin terminus cleaves tTA from the GPCR C-terminus. The released tTA initiates tTA-dependent luciferase transcription, and compound activity is ultimately determined by measuring luminescence intensity.
• 1) Tango cell line from was digested from the culture dish respectively. After cell counting, the cells were plated at a density of 10,000 cells per well with […] into a white opaque 96-well plate (add 60 µL D'Hanks to the surrounding wells), and incubated overnight (20 h) in a 5% CO2 incubator at 37°C. The cell density will reach approximately 90% the next day. • 2) After 20 h, 30 µL of serially diluted compound solution was added to each well. The control group was supplemented with 30 µL F12K complete medium. Each group had three replicate wells. • 3) Samples were collected after 20 h of drug treatment.
(All compounds were tested at a final concentration of 45 µM, with 9 serial dilutions at 5-fold intervals. 1 µM BAF-312 was used as the positive control for S1PR1, and 25 µM BAF-312 was used as the positive control for S1PR4.)
as §1

[2] = 0.3 mg/kg intragastric once daily
[3] = 1 mg/kg intragastric once daily
[4] = 1 mg/kg intragastric once daily, after treatment
[5] = 3 mg/kg intragastric once daily

Question: How did the “atrophy of the tibialis anterior muscle” value (LPS-induced sepsis model; high dose (Compound 30: 10mg/kg intraperitoneal once daily), 10 mg/kg) turn out when `CCc1cc(/C(C)=N/OCc2ccc(-c3ccccc3)c(C)c2)ccc1CN1CC[C@H](C(=O)O)C1` [Compound 30] was run?
Answer: The value was “significantly inhibited”.

Question: What about the survival rate (LPS-induced sepsis model; low-dose group (0.1mg/kg intraperitoneal once daily)) of the same compound?
Answer: Its survival rate is 75%.

Question: What about the “atrophy of the tibialis anterior muscle” value (LPS-induced sepsis model; medium dose (Compound 30: 1mg/kg intraperitoneal once daily), 1 mg/kg) of the same compound?
Answer: The value was “significantly inhibited”.

Question: What about the survival rate (LPS-induced sepsis model; medium-dose group (1mg/kg intraperitoneal once daily)) of the same compound?
Answer: The survival rate was 50%.

Question: And the “S1PR4 internalization (expression of S1PR4 receptor on the cell surface)” value (S1PR4)?
Answer: Its value is “sustained internalization capacity”.

Question: What about the “grip strength (ratio of grip strength to body weight)” value [1, 2] of the same compound?
Answer: Its value is “significantly increased”.

Question: And the “body weight gain trend” value [1, 2]?
Answer: Its value is “no difference”.

Question: What about the “grip strength (ratio of grip strength to body weight)” value [1, 3] of the same compound?
Answer: The value was “significantly increased”.

Question: And the “collagen deposition (collagen area ratio)” value [1, 3]?
Answer: Its value is “significantly reduced collagen deposition”.

Question: What about the “macrophage content (F4/80 immunofluorescence, muscle inflammation)” value [1, 4] of the same compound?
Answer: Its value is “greatest reduction”.

Question: And the “number of centrally nucleated fibers (HE staining)” value [1, 4]?
Answer: Its value is “greatest reduction”.

Question: What about the “serum creatine kinase level” value [1, 4] of the same compound?
Answer: Its value is “significantly reduced”.

Question: What about the “body weight gain trend” value [1, 3] of the same compound?
Answer: The value was “no difference”.

Question: What about the “collagen deposition (collagen area ratio)” value [1, 5] of the same compound?
Answer: The value was “significantly reduced collagen deposition”.

Question: And the “body weight gain trend” value [1, 5]?
Answer: The value was “no difference”.

Question: What about the “serum creatine kinase level” value ([1]; 4 mg/kg (so in the source) intragastric once daily, after treatment) of the same compound?
Answer: Its value is “significantly reduced”.

Question: What about the “agonist activity on S1PR5” value (S1PR5; compared with the endogenous ligand S1P) of the same compound?
Answer: Its value is “no agonist activity”.

Question: What about the Emax (S1PR5; selectivity table, FLIPR, S1PR5-CHO) of the same compound?
Answer: The Emax was 19.5%.

Question: What about the Emax (hS1P4) of the same compound?
Answer: The Emax was 104%.
